Results taken from the METLIN SMRT retention time set (Domingo-Almenara et al. 2019).

Assay: gradient 5% acetonitrile 3 min, to 50% in 2 min, to 85% in 15 min, held 3 min, 100 µL/min
Settings: column: Zorbax Extend-C18 2.1 x 50 mm; eluents: water / acetonitrile, 0.1% formic acid
Summary of the method: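 Retention times of pure standards were taken from adduct peaks that were selected by computer and manually inspected. Over 3 months, mixtures of ~100 molecules were run by HPLC–quadrupole time-of-flight mass spectrometry in positive and negative ionization mode. The Zorbax Extend-C18 column (2.1 × 50 mm, 1.8 μm) ran at 100 μL/min in water and acetonitrile, each containing 0.1% formic acid, with 40 μL dead volume and 900 μL dwell volume.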

SMILES | RP-LC retention time
O=C(Nc1ccc(C2(C(=O)NCc3ccc(F)cc3Cl)CCC2)cc1)C1CC1 | 898 s
Cc1cc(C)n(-c2c(C)c(C)nc3c(-c4ccccc4)cnn23)n1 | 947 s
Cc1cc(-c2c(C)sc(C)c2S(=O)(=O)NCC(C)c2ccccc2)n[nH]1 (stereo unspecified) | 1140 s
COc1ccc2c(c1)C1(CCN(C(=O)c3ccccc3C(F)(F)F)C1)C(=O)N2 (stereo unspecified) | 714 s
Cc1ccc(NC(=O)N2CCc3c(c(-c4nc(C)no4)nn3C)C2)cc1 | 750 s
CCN1C(=O)COc2ccc(-c3noc(-c4ccc(CS(=O)(=O)c5ccc(C)cc5)cc4)n3)cc21 | 1100 s
O=C(COc1ccc(Cl)cc1Cl)Nc1ccc2c(c1)N(C(=O)c1cccs1)CC2 | 1060 s
O=C(CN1CC=C(c2cnn(-c3ccccc3)c2)CC1)N1CCN(c2ccccc2F)CC1 | 732 s
COc1cc(NC(=O)N2CCCN(c3ccc(=O)n(-c4ccccc4)n3)CC2)cc(OC)c1OC | 694 s
CCc1nc(-c2csc(S(=O)(=O)N3CCC(C(=O)Nc4ccc(F)cc4C)CC3)c2)no1 | 963 s
O=C(O)c1cc(-c2ccc(Br)s2)nc2ccccc12 | 1110 s
COc1ccc(C)cc1NC(=O)C1CC(=O)N(c2ccc3c(c2)CCN3C(=O)C2CC2)C1 (stereo unspecified) | 836 s
CNC(=O)[C@@H]1CN(C(=O)c2cscn2)C[C@H]1c1nc(COC)no1 | 582 s
Cc1ccc(-c2nnc(-c3ccccc3)o2)cc1S(=O)(=O)N1CCCCCC1 | 1200 s

Continued, values first:

RP-LC retention time | SMILES
834 s | COC(=O)c1cccc(Nc2c(-c3ccccc3)nc3cnccn23)c1
858 s | O=C(Cn1c(=O)c(S(=O)(=O)c2ccccc2)cc2ccccc21)NCc1ccccc1
894 s | COc1ccc2c(c1)CC(C(=O)NCc1ccc(OC)cc1OC)CO2 (stereo unspecified)
1250 s | O=C(Nc1cccc(F)c1)c1c(O)c2cccnc2n(-c2ccc(F)cc2)c1=O
1140 s | CC1CCN(c2cc(-n3cnc(C(=O)N4CCc5ccccc54)c3)ncn2)CC1
940 s | Cc1nc(-c2cn(C)c3ncccc23)sc1C(=O)Nc1ccc(F)c(F)c1
1350 s | CCn1cc(-c2nc(C(=O)Nc3ccc(F)cc3Cl)cs2)c2cccnc21
968 s | COc1cccc(-c2ccc(=O)n(Cc3nc(-c4ccccc4)no3)n2)c1
633 s | Cc1nn(-c2ccc(N3CCOCC3)nn2)c(C)c1CCC(=O)NCc1ccco1
710 s | CCOc1cc(C2C(C(=O)N3CCCCC3)=C(C)NC3=C2C(=O)CCC3)ccc1OC(C)=O (stereo unspecified)
1020 s | Cc1cccc(NC(=O)Nc2nc(C)c(C(=O)NCc3ccc4c(c3)OCO4)s2)c1
656 s | O=c1c(O[C@@H]2O[C@H](CO)[C@H](O)[C@H](O)[C@H]2O)c(-c2ccc(O)c(O)c2)oc2cc(O)cc(O)c12
803 s | CC1CCN(C(=O)C2CCN(S(=O)(=O)c3cc(C(=O)N4CCCCC4)n(C)c3)CC2)CC1
584 s | O=S(=O)(NCCCCN1CCOC(c2ccccc2)C1)c1ccc(F)cc1F (stereo unspecified)
872 s | Cc1ccc(NC(=O)N2CCC(N3CCN(Cc4ccccc4)C3=O)CC2)cc1F
684 s | COc1cc(OC)cc(-c2nc(-c3ccc4c(c3)ncn4CCN3CCCC3)no2)c1
785 s | O=C(Cc1csc2nc(-c3ccccc3)cn12)Nc1ccccc1
